Reference: PMC8151276, “An Integrated Approach toward NanoBRET Tracers for Analysis of GPCR Ligand Engagement” (Molecules, 2021)

Biological target: T1, CHRM5 (Homo sapiens, UniProt P08912)
T1 construct: purchased Promega (in-house HiBiT-GPCR construct library, NanoBRET)
T1 sequence (P08912 1-532): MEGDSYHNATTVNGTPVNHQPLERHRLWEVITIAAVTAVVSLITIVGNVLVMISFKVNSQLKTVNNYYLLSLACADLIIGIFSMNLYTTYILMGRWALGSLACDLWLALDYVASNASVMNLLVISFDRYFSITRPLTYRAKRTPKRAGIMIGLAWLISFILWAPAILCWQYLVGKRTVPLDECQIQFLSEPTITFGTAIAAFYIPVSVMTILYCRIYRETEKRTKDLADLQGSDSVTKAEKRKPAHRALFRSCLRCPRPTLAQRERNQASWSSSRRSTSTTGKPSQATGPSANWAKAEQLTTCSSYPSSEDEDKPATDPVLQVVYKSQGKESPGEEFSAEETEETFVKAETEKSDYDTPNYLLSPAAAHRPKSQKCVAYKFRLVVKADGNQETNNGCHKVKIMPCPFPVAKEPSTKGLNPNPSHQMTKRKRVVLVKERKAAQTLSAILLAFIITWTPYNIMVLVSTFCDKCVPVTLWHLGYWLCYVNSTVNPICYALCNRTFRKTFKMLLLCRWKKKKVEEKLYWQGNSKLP
Experiment: NanoBRET screen HiBiT-CHRM5 in HEK293
Format: binding
Description: Each tracer candidate was screened across the entire library of HiBiT-GPCR constructs using NanoBRET as the detection modality. As depicted in Figure 4A, the specificity of interactions was evaluated through decrease in BRET due to competitive displacement of a bound tracer by excess parental compound. Each tracer was analyzed for binding to each HiBiT-GPCR fusion in the absence and in the presence of competing parental compound. Briefly, HEK293 cells were transfected with HiBiT-GPCR constructs diluted into promoterless DNA to reduce expression and maximize translocation to the cell surface. Each tracer candidate was then screened at concentrations of 1 μM and 0.1 μM across cells expressing these fusions. Cells were treated for 1.5 h with tracer either alone or in the presence of 20 μM competing parental compound (i.e., control). BRET was measured upon addition of purified LgBiT and subsequent complementation with HiBiT genetically fused to a GPCR. The specificity of interactions was assessed through a decrease in BRET signal due to competitive displacement of the bound tracer. To further gauge the robustness of these interactions, the fold response over the control (i.e., BRETtracer/BRETcontrol) was calculated. We chose a 1.5-fold response, which translates to ≥7-fold signal over noise as the minimal threshold required to score an interaction as positive.
HiBiT-GPCR DNA constructs were diluted in 10 mM Tris pH 8 to a final concentration of 0.01 μg/μL, arrayed in 96-well plates and stored at −20 °C. For transfection, HEK293 cells were suspended in Opti-MEM (without phenol red) supplemented with 2% fetal bovine serum (Seradigm) and 100 units/mL penicillin–streptomycin (Gibco) at a final concentration of 220,000 cells/mL and dispensed into white 96-well plates at 90 μL/well. Subsequent transfections and screens were carried using an Agilent Bravo Automated Liquid Handling Platform. First, the 96-well HiBiT DNA arrays were diluted 25-fold in Opti-MEM (without serum or phenol red) to a final concentration of 0.0004 μg/μL and 20 μL of the diluted DNAs were transferred into new 96-well plates. Next, promoterless carrier DNA (1 μg/μL) was diluted 25-fold (0.04 μg/μL) and then dispensed into the diluted arrays at 20 μL/well. Following brief mixing, Viafect transfection reagent (Promega) diluted 16-fold into Opti-MEM was dispensed into the plates at 40 μL/well. After mixing by pipetting, plates were incubated for 10 min on the pipetting station deck. The DNA-transfection reagent complexes were then added to plates containing cells. To facilitate the screen, 10 μL of DNA-transfection reagent complexes were added in duplicates to the top 4 and bottom 4 rows, resulting in two identical 48-well arrays per plate. Plates with transfected cells were incubated for 18–20 h at 37 °C/5% CO2. A screen of each tracer across the entire library using two different concentrations requires duplicate plates of transfected cells. Depending on the number of tracers being screened, transfections can be scaled up using the same ratios. The next day, for each tracer, four 20× screening solutions in tracer dilution buffer (Promega) were prepared: two duplicates at final concentration of 20 μM and two duplicates at a final concentration of 2 μM. […] The four resulting solutions were diluted 4-fold in Opti-MEM without serum or phenol red to generate 5× solutions (5 µM and 0.5 µM tracer +/− 100 μM competing compound). To screen the library, a BioTek MultiFlo FX liquid dispenser was used to dispense 22.5 µL of tracer solution to the top 4 rows and 22.5 µL tracer + competing compound solution to the 4 bottom rows. Plates were briefly mixed on an orbital shaker and incubated for 1.5 h at room temperature. […] Plates were briefly mixed on an orbital shaker and incubated for 15 min to allow complementation.

| Structure (SMILES) | NanoBRET Fold Response (CHRM5, tracer 0.1μM) | NanoBRET Fold Response (CHRM5, tracer 1μM) | other results |
| --- | --- | --- | --- |
| CCOC(=O)c1cc(C#N)c(N2CCC(C(=O)NS(=O)(=O)Cc3ccccc3/C=C/C(=O)NCCNC(=O)CCc3ccc4n3[B-](F)(F)[N+]3=C(c5ccc[nH]5)C=CC3=C4)CC2)nc1C [AZD1283-1-NB590] | – | – | NanoBRET Fold Response (CHRM5, 0.1μM): 1.08; NanoBRET Fold Response (CHRM5, 1μM): 1.08 |
| N#CN=C(NCCCOc1cccc(CN2CCCCC2)c1)NCCNC(=O)CCOCCOCCOCCOCCNC(=O)CCc1ccc2n1[B-](F)(F)[N+]1=C(c3ccc[nH]3)C=CC1=C2 [Aminopotentidine-2-NB590] | 1.02 | 1.10 | – |
| CN(C)CCC=C1c2ccccc2CCc2ccc(C(=O)NCCNC(=O)CCOCCOCCOCCOCCNC(=O)CCc3ccc4n3[B-](F)(F)[N+]3=C(c5ccc[nH]5)C=CC3=C4)cc21 [Amitriptyline-a-2-NB590] | – | – | NanoBRET Fold Response (tracer at 1μM): 1.23 |
| CN(C)CCC=C1c2ccccc2CCc2ccc(C(=O)NCCNC(=O)CCOCCOCCOCCOCCNC(=O)CCc3ccc4n3[B-](F)(F)[N+]3=C(c5ccc[nH]5)C=CC3=C4)cc21 [Amitriptyline-b-2-NB590] | – | – | NanoBRET Fold Response (tracer at 0.1μM, listed as amitriptyline-b-2-NB590): 3.47; NanoBRET Fold Response (tracer at 1μM, listed as amitriptyline-b-2-NB590): 4.23 |
| CN(CCC=C1c2ccccc2CCc2ccccc21)C(=O)CCOCCOCCOCCOCCNC(=O)CCc1ccc2n1[B-](F)(F)[N+]1=C(c3ccc[nH]3)C=CC1=C2 [Amitriptyline-e-2-NB590] | – | – | NanoBRET Fold Response (tracer at 1μM): 1.14 |
| COc1ccc2c(n1)c(CCNC(C)=O)cn2CCNC(=O)CCc1ccc2n1[B-](F)(F)[N+]1=C(c3ccc[nH]3)C=CC1=C2 [Azamelatonin-1-NB590] | – | – | NanoBRET Fold Response (0.1μM tracer): 0.89; NanoBRET Fold Response (1μM tracer): 1.23 |
| COc1ccc2[nH]c(-c3ccc(CNC(=O)CCOCCOCCOCCOCCNC(=O)CCc4ccc5n4[B-](F)(F)[N+]4=C(c6ccc[nH]6)C=CC4=C5)cc3)c(CCNC(C)=O)c2n1 [AzomelatoninICO9-2-NB590] | – | – | NanoBRET Fold Response (0.1μM tracer): 0.90; NanoBRET Fold Response (1μM tracer): 0.97 |
| O=C(CCOCCOCCOCCOCCNC(=O)CCc1ccc2n1[B-](F)(F)[N+]1=C(c3ccc[nH]3)C=CC1=C2)NCCCN1CCN(C2=Nc3cc(Cl)ccc3Nc3ccccc32)CC1 [Clozapine-a-2-NB590] | – | – | NanoBRET Fold Response (CHRM5, 0.1μM tracer): 1.10; NanoBRET Fold Response (CHRM5, 1μM tracer): 0.91 |
| CN1CCN(C2=Nc3cc(Cl)ccc3Nc3ccc(CNC(=O)CCOCCOCCOCCOCCNC(=O)CCc4ccc5n4[B-](F)(F)[N+]4=C(c6ccc[nH]6)C=CC4=C5)cc32)CC1 [Clozapine-b-2-NB590] | – | – | NanoBRET Fold Response (CHRM5, 0.1μM tracer): 1.00 |
| CN1CCN(C2=Nc3cc(Cl)ccc3N(CC(=O)NCCOCCOCCOCCOCCNC(=O)CCc3ccc4n3[B-](F)(F)[N+]3=C(c5ccc[nH]5)C=CC3=C4)c3ccccc32)CC1 [Clozapine-c-2-NB590] | – | – | NanoBRET Fold Response (CHRM5, 0.1μM tracer): 1.00; NanoBRET Fold Response (CHRM5, 1μM tracer): 0.86 |
| O=C(CCOCCOCCOCCOCCNC(=O)CCc1ccc2n1[B-](F)(F)[N+]1=C(c3ccc[nH]3)C=CC1=C2)NCCCN1CCN(C2=Nc3ccccc3Oc3ccc(Cl)cc32)CC1 [Loxapine-a-2-NB590] | 0.99 | 0.89 | – |
| COc1ccccc1N1CCN(CCCCN2C(=O)c3ccc(CNC(=O)CCOCCOCCOCCOCCNC(=O)CCc4ccc5n4[B-](F)(F)[N+]4=C(c6ccc[nH]6)C=CC4=C5)cc3C2=O)CC1 [NAN-190-2-NB590] | 0.90 | – | – |
| COc1ccccc1N1CCN(CCCCN2C(=O)c3ccc(CNC(=O)CCOCCNC(=O)c4ccc(CNC(=O)CCc5ccc6n5[B-](F)(F)[N+]5=C(c7ccc[nH]7)C=CC5=C6)cc4)cc3C2=O)CC1 [NAN-190-3-NB590] | 1.00 | 1.24 | – |
| O=C(CCc1ccc2n1[B-](F)(F)[N+]1=C(c3ccc[nH]3)C=CC1=C2)NCc1ccc(C(=O)NCCOCCC(=O)N[C@@H]2CC[C@@]3(O)[C@H]4Cc5ccc(O)c6c5[C@@]3(CCN4CC3CC3)[C@H]2O6)cc1 [Naltrexone-3-NB590] | 1.18 | 0.79 | – |
| Cc1cc2c(s1)Nc1ccccc1N=C2N1CCN(CCCNC(=O)CCOCCOCCOCCOCCNC(=O)CCc2ccc3n2[B-](F)(F)[N+]2=C(c4ccc[nH]4)C=CC2=C3)CC1 [Olanzapine-a-2-NB590] | 1.05 | 1.00 | – |
| O=C(CCc1ccc2n1[B-](F)(F)[N+]1=C(c3ccc[nH]3)C=CC1=C2)NCc1ccc(C(=O)NCCOCCOCCNCC(O)COc2cccc3ccccc23)cc1 (centres unmarked) [Propranolol-3-NB590] | – | – | NanoBRET Fold Response (CHRM5, 0.1μM): 1.00; NanoBRET Fold Response (CHRM5, 1μM): 1.03 |
| O=C(CCc1ccc2n1[B-](F)(F)[N+]1=C(c3ccc[nH]3)C=CC1=C2)NCCOCCOCCNC(=O)OCCOCCN1CCN(C2=Nc3ccccc3Sc3ccccc32)CC1 [Quetiapine-a-2-NB590] | 1.18 | 1.36 | – |
| Cc1nc2n(c(=O)c1CCN1CCC(c3noc4cc(F)ccc34)CC1)CCCC2OC(=O)NCCOCCOCCOCCOCCNC(=O)CCc1ccc2n1[B-](F)(F)[N+]1=C(c3ccc[nH]3)C=CC1=C2 (centres unmarked) [Risperidone-2-NB590] | 1.07 | 0.95 | – |
| CC(C)N(CC[C@H](c1ccccc1)c1cc(CCNC(=O)CCOCCOCCOCCOCCNC(=O)CCc2ccc3n2[B-](F)(F)[N+]2=C(c4ccc[nH]4)C=CC2=C3)ccc1O)C(C)C [Tolterodine-2-NB590] | 3.27 | 2.82 | – |
| CC(C)N(CC[C@H](c1ccccc1)c1cc(CCNC(=O)c2ccc(CNC(=O)CCc3ccc4n3[B-](F)(F)[N+]3=C(c5ccc[nH]5)C=CC3=C4)cc2)ccc1O)C(C)C [Tolterodine-BZ-NB590] | 2.88 | 1.94 | – |
| CCCn1c(=O)c2[nH]c(-c3ccc(OCC(=O)NCCNC(=O)CCOCCNC(=O)c4ccc(CNC(=O)CCc5ccc6n5[B-](F)(F)[N+]5=C(c7ccc[nH]7)C=CC5=C6)cc4)cc3)nc2n(CCC)c1=O [XAC-3-NB590] | 0.98 | 0.86 | – |
